We go through 1 compound from ChEMBL document CHEMBL2157895, “Selective Dual Inhibitors of the Cancer-Related Deubiquitylating Proteases USP7 and USP47” (ACS Med Chem Lett, 2012).

Activity calls are given as the source filed them. The calls are words filed in the database; no cut-off is given here.

The target of assay [1] is T1, Ubiquitin carboxyl-terminal hydrolase 28 (Homo sapiens) (UniProt Q96RU2).
T1 sequence (whole entry): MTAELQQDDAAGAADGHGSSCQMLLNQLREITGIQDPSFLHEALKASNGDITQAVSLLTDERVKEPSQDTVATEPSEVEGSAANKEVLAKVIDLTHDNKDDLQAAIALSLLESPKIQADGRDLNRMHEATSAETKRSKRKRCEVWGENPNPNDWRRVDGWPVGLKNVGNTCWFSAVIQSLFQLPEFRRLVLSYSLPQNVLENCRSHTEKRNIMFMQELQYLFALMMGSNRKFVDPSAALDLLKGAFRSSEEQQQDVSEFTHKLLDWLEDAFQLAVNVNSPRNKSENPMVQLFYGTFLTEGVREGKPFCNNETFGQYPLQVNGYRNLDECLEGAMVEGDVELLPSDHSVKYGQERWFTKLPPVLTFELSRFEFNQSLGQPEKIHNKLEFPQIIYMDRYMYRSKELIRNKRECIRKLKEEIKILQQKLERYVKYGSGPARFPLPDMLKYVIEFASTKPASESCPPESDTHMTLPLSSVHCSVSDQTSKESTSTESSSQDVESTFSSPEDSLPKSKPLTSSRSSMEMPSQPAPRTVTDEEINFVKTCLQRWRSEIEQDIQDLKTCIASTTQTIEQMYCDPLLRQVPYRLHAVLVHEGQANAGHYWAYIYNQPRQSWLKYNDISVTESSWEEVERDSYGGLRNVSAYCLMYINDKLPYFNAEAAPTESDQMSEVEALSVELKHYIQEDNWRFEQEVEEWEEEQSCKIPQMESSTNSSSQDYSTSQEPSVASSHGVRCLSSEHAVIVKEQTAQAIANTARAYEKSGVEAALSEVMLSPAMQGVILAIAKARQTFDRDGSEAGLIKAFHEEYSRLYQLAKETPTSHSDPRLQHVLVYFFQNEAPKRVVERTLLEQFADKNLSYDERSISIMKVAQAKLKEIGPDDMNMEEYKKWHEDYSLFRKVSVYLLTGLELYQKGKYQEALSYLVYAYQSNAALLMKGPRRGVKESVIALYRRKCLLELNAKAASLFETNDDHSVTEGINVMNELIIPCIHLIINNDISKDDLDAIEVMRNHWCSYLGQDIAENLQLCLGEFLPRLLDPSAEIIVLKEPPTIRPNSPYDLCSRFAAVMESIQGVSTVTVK
The experiment in a line: Inhibition of USP28 by Ub-CHOP reporter assay. (Reporter assays use an easily measured gene product as a stand-in for the process of interest.)

In assay [2] the target is T2, Ubiquitin carboxyl-terminal hydrolase 8 (Homo sapiens) (UniProt P40818).
T2 sequence (whole entry): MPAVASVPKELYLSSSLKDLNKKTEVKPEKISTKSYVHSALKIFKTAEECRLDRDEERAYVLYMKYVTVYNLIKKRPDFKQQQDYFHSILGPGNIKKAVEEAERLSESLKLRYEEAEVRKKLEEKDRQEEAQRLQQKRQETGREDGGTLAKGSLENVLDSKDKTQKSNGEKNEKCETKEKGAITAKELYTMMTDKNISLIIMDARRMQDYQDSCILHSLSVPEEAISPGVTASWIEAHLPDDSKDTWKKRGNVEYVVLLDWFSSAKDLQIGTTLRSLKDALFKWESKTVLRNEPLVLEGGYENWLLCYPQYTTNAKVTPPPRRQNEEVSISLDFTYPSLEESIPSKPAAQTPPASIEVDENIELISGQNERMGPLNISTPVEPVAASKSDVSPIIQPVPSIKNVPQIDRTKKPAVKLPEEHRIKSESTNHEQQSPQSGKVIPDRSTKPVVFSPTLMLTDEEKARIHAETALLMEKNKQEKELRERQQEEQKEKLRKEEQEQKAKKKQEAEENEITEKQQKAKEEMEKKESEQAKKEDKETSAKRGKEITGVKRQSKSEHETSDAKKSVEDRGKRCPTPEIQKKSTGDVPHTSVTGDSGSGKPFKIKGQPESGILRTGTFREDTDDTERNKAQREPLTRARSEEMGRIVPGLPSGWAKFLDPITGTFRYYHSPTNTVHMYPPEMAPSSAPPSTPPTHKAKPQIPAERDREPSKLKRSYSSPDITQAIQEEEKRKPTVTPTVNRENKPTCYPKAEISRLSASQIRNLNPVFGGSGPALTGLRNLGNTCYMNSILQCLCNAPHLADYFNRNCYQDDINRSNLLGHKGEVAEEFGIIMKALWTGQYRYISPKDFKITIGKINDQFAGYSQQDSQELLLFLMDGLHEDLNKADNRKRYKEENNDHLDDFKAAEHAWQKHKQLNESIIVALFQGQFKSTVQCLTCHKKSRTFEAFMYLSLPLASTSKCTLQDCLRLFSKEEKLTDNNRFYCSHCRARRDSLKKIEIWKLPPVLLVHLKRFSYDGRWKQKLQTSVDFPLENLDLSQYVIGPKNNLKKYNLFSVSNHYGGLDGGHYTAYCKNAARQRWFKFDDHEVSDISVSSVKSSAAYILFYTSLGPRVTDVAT
The experiment in a line: Inhibition of USP8 by Ub-CHOP reporter assay.

As for `CS(=O)(=O)c1ccc(NC(=O)c2cc(C#N)c(Sc3c(Cl)cncc3Cl)s2)cc1`, the inhibition result in assay [1] and in assay [2] was “inactive” in each case.
